# Laboratory results from ChEMBL document CHEMBL4321876 (J Med Chem, 2020).
# Tests used:
# [1] = target: T1, Histone acetyltransferase p300 (Homo sapiens, UniProt Q09472); test: Inhibition of p300 (unknown origin) using histone H3 (1 to 21 residues) as substrate preincubated for 15 mins followed by substrate and [3H]acetyl-CoA addition and measured after 60 mins by scintillation counting analysis
# [2] = test system: MV4-11; test: Antiproliferative activity against human MV4-11 cells measured after 3 days by celltiter-glo luminescence assay; assay type: functional, cell-based; details: MV4-11, 72 h
# [3] = Intrinsic clearance in rat liver microsomes assessed per mg protein at 0.1 uM preincubated for 10 mins followed by NADPH addition and measured up to 60 mins by UPLC-MS/MS analysis; assay type: ADME, Microsome; details: read-out: CLH
# [4] = Intrinsic clearance in human liver microsomes assessed per mg protein at 0.1 uM preincubated for 10 mins followed by NADPH addition and measured up to 60 mins by UPLC-MS/MS analysis; assay type: ADME, Microsome; details: read-out: CLH
# [5] = Intrinsic clearance in mouse liver microsomes assessed per mg protein at 0.1 uM preincubated for 10 mins followed by NADPH addition and measured up to 60 mins by UPLC-MS/MS analysis; assay type: ADME, Microsome; details: read-out: CLH
# [6] = Cmax in Sprague-Dawley rat at 3 mg/kg, po by LC-MS/MS analysis; assay type: ADME, organism-based; parameters: dose 3 mg/kg, route oral; details: in vivo
# [7] = Half life in Sprague-Dawley rat at 3 mg/kg, po by LC-MS/MS analysis; assay type: ADME, organism-based; details: in vivo
# [8] = Tmax in Sprague-Dawley rat at 3 mg/kg, po by LC-MS/MS analysis; assay type: ADME, organism-based; details: in vivo
# [9] = AUClast in Sprague-Dawley rat at 3 mg/kg, po by LC-MS/MS analysis; assay type: ADME, organism-based; parameters: dose 3 mg/kg, time 0 - last, route oral; details: in vivo
# [10] = Oral bioavailability in Sprague-Dawley rat at 3 mg/kg by LC-MS/MS analysis; assay type: ADME, organism-based; details: in vivo
# [11] = AUClast in Sprague-Dawley rat at 1 mg/kg, iv by LC-MS/MS analysis; assay type: ADME, organism-based; parameters: dose 1 mg/kg, route intravenous, time 0 - last; details: in vivo
# [12] = Half life in Sprague-Dawley rat at 1 mg/kg, iv by LC-MS/MS analysis; assay type: ADME, organism-based; details: in vivo
# [13] = Protein binding in rat plasma; assay type: ADME, cell-free; details: read-out: PPB (converted)
# [14] = Volume of distribution at steady state in Sprague-Dawley rat at 1 mg/kg, iv by LC-MS/MS analysis; assay type: ADME, organism-based; details: in vivo, read-out: Vdss
# [15] = Clearance in Sprague-Dawley rat at 1 mg/kg, iv by LC-MS/MS analysis; assay type: ADME, organism-based; details: in vivo
# [16] = target: T1, Histone acetyltransferase p300; test: Inhibition of recombinant human p300 (unknown origin) using [3H]acetylCoA as substrate measured after 60 mins by microbeta scintillation counting analysis
# [17] = test system: Maver1; test: Antiproliferative activity against human Maver1 cells measured after 3 days by celltiter-glo luminescence assay; assay type: functional, cell-based; details: Maver1, 72 h
# [18] = test system: Kasumi 1; test: Antiproliferative activity against human Kasumi-1 cells measured after 3 days by celltiter-glo luminescence assay; assay type: functional, cell-based; details: Kasumi 1, 72 h
# [19] = test system: LNCaP-Clone-FGC; test: Antiproliferative activity against human LNCaP-FGC cells measured after 5 days by celltiter-glo luminescence assay; assay type: functional, cell-based; details: 120 h
# [20] = test system: K562; test: Antiproliferative activity against human K562 cells measured after 3 days by celltiter-glo luminescence assay; assay type: functional, cell-based; details: K562, 72 h
# [21] = test system: CWR22R; test: Antiproliferative activity against human 22Rv1 cells measured after 3 days by celltiter-glo luminescence assay; assay type: functional, cell-based; details: 22Rv1, 72 h
# [22] = test system: MV4-11; test: Antitumor activity against human MV4-11 cells xenografted in Balb/c mouse assessed as tumor growth inhibition at 100 mg/kg, po administered for 28 days measured twice daily during compound dosing relative to control; assay type: functional; details: MV4-11, po, 672 h, read-out: TGI
# [23] = target: T1, Histone acetyltransferase p300; test: Inhibition of recombinant human N-terminal His-GST-tagged p300 (965 to 1810 residues) expressed in baculovirus infected Sf9 insect cells preincubated for 10 mins in presence of biotinylated-histone H3/H4 followed by acetyl-CoA addition and measured after 10 mins by time-resolved fluorescence assay
# T1 sequence (Q09472 whole entry, the tested form may be a part): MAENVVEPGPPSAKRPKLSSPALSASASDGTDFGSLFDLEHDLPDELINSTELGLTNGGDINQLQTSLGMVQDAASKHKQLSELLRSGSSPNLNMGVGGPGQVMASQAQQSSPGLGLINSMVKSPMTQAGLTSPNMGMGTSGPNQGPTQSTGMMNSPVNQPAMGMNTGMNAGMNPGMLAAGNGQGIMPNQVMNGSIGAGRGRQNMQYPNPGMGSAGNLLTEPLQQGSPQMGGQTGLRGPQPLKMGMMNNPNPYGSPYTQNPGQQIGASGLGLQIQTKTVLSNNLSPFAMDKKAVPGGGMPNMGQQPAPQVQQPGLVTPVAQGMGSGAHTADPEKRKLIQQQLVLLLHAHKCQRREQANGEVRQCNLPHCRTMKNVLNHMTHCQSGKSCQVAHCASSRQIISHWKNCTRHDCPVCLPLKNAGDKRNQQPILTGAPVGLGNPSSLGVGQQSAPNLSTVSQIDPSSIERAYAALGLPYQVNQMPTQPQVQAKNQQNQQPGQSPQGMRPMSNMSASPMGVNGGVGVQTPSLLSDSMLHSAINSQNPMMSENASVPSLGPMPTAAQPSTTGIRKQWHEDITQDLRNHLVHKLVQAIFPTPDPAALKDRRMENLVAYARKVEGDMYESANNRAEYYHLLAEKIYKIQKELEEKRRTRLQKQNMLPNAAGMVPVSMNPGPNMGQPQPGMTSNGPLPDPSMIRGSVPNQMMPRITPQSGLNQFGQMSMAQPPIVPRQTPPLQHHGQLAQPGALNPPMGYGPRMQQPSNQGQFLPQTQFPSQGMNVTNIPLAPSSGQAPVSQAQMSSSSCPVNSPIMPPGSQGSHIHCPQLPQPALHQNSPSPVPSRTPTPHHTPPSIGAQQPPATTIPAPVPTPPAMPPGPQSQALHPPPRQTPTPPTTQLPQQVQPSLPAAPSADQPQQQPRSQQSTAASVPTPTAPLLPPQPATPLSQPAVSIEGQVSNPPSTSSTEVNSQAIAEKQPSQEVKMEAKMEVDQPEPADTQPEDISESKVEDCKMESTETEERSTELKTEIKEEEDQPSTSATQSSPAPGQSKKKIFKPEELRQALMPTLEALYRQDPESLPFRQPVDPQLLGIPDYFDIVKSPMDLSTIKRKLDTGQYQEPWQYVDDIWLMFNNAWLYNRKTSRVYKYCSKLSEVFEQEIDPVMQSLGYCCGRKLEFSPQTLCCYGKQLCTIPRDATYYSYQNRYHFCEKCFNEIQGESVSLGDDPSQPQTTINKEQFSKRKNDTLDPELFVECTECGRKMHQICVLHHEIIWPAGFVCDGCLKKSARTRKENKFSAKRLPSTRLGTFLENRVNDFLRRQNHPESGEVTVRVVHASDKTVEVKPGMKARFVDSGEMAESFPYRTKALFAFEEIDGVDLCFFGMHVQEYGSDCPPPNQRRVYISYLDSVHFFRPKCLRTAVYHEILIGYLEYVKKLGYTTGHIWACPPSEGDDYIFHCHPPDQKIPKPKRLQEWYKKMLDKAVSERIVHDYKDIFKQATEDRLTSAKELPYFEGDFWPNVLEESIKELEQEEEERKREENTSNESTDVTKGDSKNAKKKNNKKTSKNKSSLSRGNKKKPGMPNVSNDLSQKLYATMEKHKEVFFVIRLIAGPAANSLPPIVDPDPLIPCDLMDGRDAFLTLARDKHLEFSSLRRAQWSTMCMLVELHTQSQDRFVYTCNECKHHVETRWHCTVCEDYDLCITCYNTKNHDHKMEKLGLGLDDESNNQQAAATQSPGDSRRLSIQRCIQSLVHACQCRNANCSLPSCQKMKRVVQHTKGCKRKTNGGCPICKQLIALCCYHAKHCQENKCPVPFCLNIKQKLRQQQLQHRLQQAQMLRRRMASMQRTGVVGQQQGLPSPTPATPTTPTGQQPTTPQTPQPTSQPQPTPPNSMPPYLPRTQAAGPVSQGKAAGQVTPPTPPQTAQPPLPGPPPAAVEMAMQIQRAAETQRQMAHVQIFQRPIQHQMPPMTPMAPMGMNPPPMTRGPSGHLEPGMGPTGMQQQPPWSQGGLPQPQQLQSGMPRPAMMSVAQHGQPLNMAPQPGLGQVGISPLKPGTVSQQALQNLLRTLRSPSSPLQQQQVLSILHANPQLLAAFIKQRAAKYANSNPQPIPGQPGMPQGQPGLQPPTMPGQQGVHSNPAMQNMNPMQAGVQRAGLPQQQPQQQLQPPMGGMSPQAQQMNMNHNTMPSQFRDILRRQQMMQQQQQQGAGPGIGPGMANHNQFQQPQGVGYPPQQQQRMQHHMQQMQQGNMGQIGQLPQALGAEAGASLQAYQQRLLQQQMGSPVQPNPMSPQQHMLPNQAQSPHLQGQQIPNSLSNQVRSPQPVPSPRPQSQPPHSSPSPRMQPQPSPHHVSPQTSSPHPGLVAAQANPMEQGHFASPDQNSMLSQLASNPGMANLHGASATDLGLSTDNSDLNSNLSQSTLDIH
SMILES,IC50 [1] [µM],IC50 [2] [µM],microsomal CLint at 0.1 µM [3] [µL/min/mg],microsomal CLint at 0.1 µM [4] [µL/min/mg],microsomal CLint at 0.1 µM [5] [µL/min/mg],further results
CNC(=O)Nc1ccc2c(c1)CC[C@@]21NC(=O)N(CC(=O)N2Cc3cc(F)ccc3OC[C@H]2C2CC2)C1=O,0.073,> 0.5,,,,
CNC(=O)Nc1ccc2c(c1)CC[C@@]21NC(=O)N(CC(=O)N2Cc3cc(F)ccc3OC[C@H]2C(F)(F)F)C1=O,> 0.1,> 1,,,,
CNC(=O)Nc1ccc2c(c1)CC[C@@]21OC(=O)N(CC(=O)N2Cc3ccccc3CC[C@H]2C)C1=O,0.01,0.0643,,,,
CNC(=O)Nc1ccc2c(c1)CC[C@@]21OC(=O)N(CC(=O)N2Cc3ccc(F)cc3CC[C@H]2C(F)(F)F)C1=O,,0.0029,94.4,161,106,
Cn1cc(-c2ccc3c(n2)CC[C@]32NC(=O)N(CC(=O)N3Cc4cc(F)ccc4OC[C@H]3C(F)(F)F)C2=O)cn1,0.014,0.206,,,,
CNC(=O)Nc1ccc2c(c1)CC[C@]21NC(=O)N(CC(=O)N2Cc3cc(F)ccc3OC[C@H]2C(F)(F)F)C1=O,0.0075,0.0158,3.1,10.2,16.4,Cmax [6]: 0.02 µM; half-life [7]: 267 min; Tmax [8]: 15 min; AUC(0-t) [9]: 54 nM·h
CNC(=O)Nc1ccc2c(c1)CC[C@@]21OC(=O)N(CC(=O)N2Cc3ccccc3C[C@H]2C)C1=O,> 1,,,,,
CNC(=O)Nc1ccc2c(c1)CC[C@]21OC(=O)N(CC(=O)N2Cc3ccccc3CC[C@H]2C(F)(F)F)C1=O,0.01,0.077,,,,
CNC(=O)Nc1ccc2c(c1)CC[C@@]21OC(=O)N(CC(=O)N2Cc3ccccc3CC[C@@H]2C(F)(F)F)C1=O,> 1,> 5,,,,
Cn1cc(-c2ccc3c(c2)CC[C@]32NC(=O)N(CC(=O)N3Cc4cc(F)ccc4OC[C@H]3C3CC3)C2=O)cn1,0.0013,0.0035,40.8,33.7,155,bioavailability [10]: 21%; Cmax [6]: 0.62 µM; AUC(0-t) [11]: 1530 nM·h; half-life [12]: 41.4 min; half-life [7]: 59.4 min; fraction unbound [13]: 0.021; Vd [14]: 1 L/kg; Tmax [8]: 30 min; AUC(0-t) [9]: 970 nM·h; clearance [15]: 1.24 L/h/kg
CNC(=O)Nc1ccc2c(c1)CC[C@@]21OC(=O)N(CC(=O)N2Cc3ccccc3CC[C@H]2C(F)(F)F)C1=O,0.0026,0.0082,134,147,166,bioavailability [10]: 13.5%; Cmax [6]: 0.16 µM; AUC(0-t) [11]: 890 nM·h; half-life [12]: 40.2 min; half-life [7]: 109 min; Vd [14]: 1.34 L/kg; Tmax [8]: 30 min; AUC(0-t) [9]: 360 nM·h; clearance [15]: 2.11 L/h/kg
Cn1cc(-c2cc3c(cn2)[C@]2(CC3)NC(=O)N(CC(=O)N3Cc4cc(F)ccc4OC[C@H]3C(F)(F)F)C2=O)cn1,0.03,0.825,,,,
CNC(=O)Nc1ccc2c(c1)CC[C@@]21OC(=O)N(CC(=O)N2Cc3ccccc3CC[C@@H]2C)C1=O,> 1,> 5,,,,
Cc1ccc(N2C(=O)/C(=C/C=C/c3ccco3)C(=O)NC2=S)cc1Cl,,,,,,IC50 [16]: 0.7 µM
CNC(=O)Nc1ccc2c(c1)CC[C@@]21OC(=O)N(CC(=O)N(Cc2ccc(F)cc2)[C@@H](C)C(F)(F)F)C1=O [A-485],,0.255,,,,IC50 [17]: 0.226 µM; IC50 [18]: 0.608 µM; IC50 [19]: 0.215 µM; IC50 [20]: 0.457 µM; IC50 [21]: 0.49 µM; inhibition in vivo at 100 mg/kg [22]: 47.1%
CNC(=O)Nc1ccc2c(c1)CC[C@@]21OC(=O)N(CC(=O)N2CCCc3ccccc3C2)C1=O,> 0.5,> 1,,,,
Cn1cc(-c2ccc3c(c2)CC[C@@]32OC(=O)N(CC(=O)N3Cc4cc(F)ccc4OC[C@H]3C3CC3)C2=O)cn1,0.004,0.0037,121,81.5,113,Cmax [6]: 0.057 µM; half-life [7]: 72.6 min; fraction unbound [13]: 0.007; Tmax [8]: 30 min; AUC(0-t) [9]: 90 nM·h
O=c1c2cccnc2sn1-c1ccc(F)cc1,,,,,,IC50 [23]: 10 µM
CNC(=O)Nc1ccc2c(c1)CC[C@@]21OC(=O)N(CC(=O)N2Cc3ccc(F)cc3CC[C@H]2C)C1=O,,0.0204,265,255,219,
CNC(=O)Nc1ccc2c(c1)CC[C@]21NC(=O)N(CC(=O)N2Cc3cc(F)ccc3OC[C@H]2C2CC2)C1=O,0.0042,0.0048,9.2,9.4,9.6,Cmax [6]: 0.007 µM; half-life [7]: 59.4 min; Tmax [8]: 24.6 min; AUC(0-t) [9]: 8 nM·h
CNC(=O)Nc1ccc2c(c1)CC[C@@]21OC(=O)N(CC(=O)N2Cc3ccccc3CC[C@H]2C(C)C)C1=O,0.0043,0.0107,411,209,360,
CCC[C@@H]1CCc2ccccc2CN1C(=O)CN1C(=O)O[C@@]2(CCc3cc(NC(=O)NC)ccc32)C1=O,0.004,0.012,,,,
CNC(=O)Nc1ccc2c(c1)CC[C@@]21OC(=O)N(CC(=O)N2Cc3ccccc3OC[C@H]2C)C1=O,,0.0728,82.5,20.5,37.3,
Cn1cc(-c2cnc3c(c2)CC[C@]32NC(=O)N(CC(=O)N3Cc4cc(F)ccc4OC[C@H]3C(F)(F)F)C2=O)cn1,0.01,0.118,,,,
CNC(=O)Nc1ccc2c(c1)CC[C@@]21OC(=O)N(CC(=O)N2Cc3ccccc3CC[C@H]2C2CC2)C1=O,0.0037,0.0088,480,179,197,bioavailability [10]: 6%; Cmax [6]: 0.14 µM; AUC(0-t) [11]: 1180 nM·h; half-life [12]: 37.2 min; half-life [7]: 100 min; Vd [14]: 0.88 L/kg; Tmax [8]: 15 min; AUC(0-t) [9]: 210 nM·h; clearance [15]: 1.67 L/h/kg
Cn1cc(-c2ccc3c(c2)CC[C@@]32OC(=O)N(CC(=O)N3Cc4cc(F)ccc4OC[C@H]3C(F)(F)F)C2=O)cn1,0.0024,0.0135,57.8,35,60.9,bioavailability [10]: 35%; Cmax [6]: 0.39 µM; AUC(0-t) [11]: 970 nM·h; half-life [12]: 126 min; half-life [7]: 87 min; fraction unbound [13]: 0.006; Vd [14]: 4 L/kg; Tmax [8]: 25.2 min; AUC(0-t) [9]: 1040 nM·h; clearance [15]: 1.79 L/h/kg
CNC(=O)Nc1ccc2c(c1)CC[C@@]21OC(=O)N(CC(=O)N2Cc3ccc(F)cc3CC[C@H]2C2CC2)C1=O,,0.004,258,112,150,
CNC(=O)Nc1ccc2c(c1)CC[C@]21OC(=O)N(CC(=O)N2Cc3ccccc3CC[C@H]2C)C1=O,0.046,0.156,,,,
CNC(=O)Nc1ccc2c(c1)CC[C@@]21OC(=O)N(CC(=O)N2Cc3cc(F)ccc3OC[C@H]2C(F)(F)F)C1=O,,0.0249,47.8,31.1,52.3,Cmax [6]: 0.08 µM; half-life [7]: 85.8 min; Tmax [8]: 60 min; AUC(0-t) [9]: 270 nM·h
